{"source": "patent US9468670B2", "about": "“Melatonin-based treatment and diagnosis of bile duct disease” (Texas A&M University System, priority 2011, dated 2016)", "key": {"[1]": {"assay": "Melatonin serum levels by ELISA in normal and BDL rats", "type": "in vivo", "conditions": "male, Fischer 344, rat, oral, 20 mg/L in drinking water, tap water containing melatonin (20 mg/L) for 1 week", "protocol": "Male 344 Fischer rats (150-175 g) were purchased from Charles River (Wilmington, Mass.) and kept in a temperature-controlled environment (22° C.) with 12:12 hr light/dark cycles. Animals were fed ad libitum and had free access to food and drinking water. The studies were performed in normal rats, and in rats that immediately after bile duct ligation (BDL, for collection of serum, liver tissues and cells) (Alpini et al., 1988) or bile duct incannulation (BDI, for bile collection) (Alpini et al., 1988) had ad libitum access to tap water or tap water containing melatonin (20 mg/L in drinking water that corresponds to approximately an intake of melatonin of 2 mg/g BW per day per rat) (Anisimov et al., 2003) for 1 week. Before each surgical procedure, animals were anesthetized with sodium pentobarbital (50 mg/kg BW, IP).\nMelatonin serum levels were measured by commercially available ELISA kits according to the instructions provided by the vendor (Genway, San Diego, Calif.)."}, "[2]": {"assay": "H&E evaluation of organ damage in melatonin-treated rats", "type": "in vivo, rat", "conditions": "normal and BDL rats treated with melatonin", "description": "The following was also evaluated in paraffin-embedded liver sections ([…]): (i) lobular necrosis; (ii) the intrahepatic bile duct mass (IBDM) of large ([…]) (Alpini et al., 1997; Glaser et al., 2009) cholangiocytes, the only biliary cell types proliferating following BDL (Alpini et al., 1998; Glaser et al., 2009) and (iii) the percentage of cholangiocyte apoptosis by semiquantitative terminal deoxynucleotidyltransferase biotin-dUTP nick-end labeling (TUNEL) kit (Apoptag; Chemicon International, Inc.) (Glaser et al., 2010). Lobular necrosis was measured in liver sections stained for hematoxylin and eosin (Glaser et al., 2010). Lobular necrosis was scored as follows: −=0 foci; +/−=<2 foci; +=2-4 foci; and ++=>4 foci (Glaser et al., 2010). The IBDM was measured as area occupied by CK-19 positive-bile duct/total area×100 (Glaser et al., 2010). It was also evaluated by H&E of sections if melatonin administration induces the damage of kidney, heart, stomach, spleen and small and large intestine of normal and BDL rats. The sections from the selected were evaluated in a blinded-fashion by two board-certified pathologists by a BX-51 light microscope (Olympus, Tokyo, Japan) equipped with a camera."}, "[3]": {"test_system": "PER1, BMAL1, CRY1, CLOCK, MT1 and MT2", "assay": "FACS analysis of clock proteins and MT1/MT2 in large mouse cholangiocyte lines", "type": "cell-based", "conditions": "in vitro melatonin vs. basal value", "description": "(i) in paraffin-embedded liver sections ([…]) from normal and BDL control rats by immunohistochemistry ([…] al., 2009); and (ii) in total RNA (1 μg, by real-time PCR) (Francis et al., 2008) from purified cholangiocytes. […] FACS analysis was performed as described (Onori et al., 2010) using a C6 flow cytometer and analyzed by CFlow Software (Accuri Cytometers Inc. Ann Arbor, Mich.). At least 10,000 events in the light-scatter (SSC/FSC) were acquired. The expression of the selected protein was identified and gated on FL1-A/Count plots. The relative quantity of the selected protein (mean selected protein fluorescence) was expressed as mean FL1-A (samples)/mean FL-1A (secondary antibodies only)."}, "miR-141": {"test_system": "miR-141", "assay": "miRNA microarray expression profiling in BDL rat liver", "conditions": "reduced in BDL; after melatonin treatment in vivo", "source_text": "Background: microRNAs (miRNAs) are small non-coding RNAs that have been implicated in the pathology of cholestatic liver injuries. After bile duct ligation (BDL), there is enhanced biliary proliferation and intrahepatic bile duct mass (IBDM). The inventors have previously shown that: i) cholangiocytes produce melatonin and express Clock genes and that ii) melatonin inhibits in vitro and in vivo the growth of cholangiocytes and cholangiocarcinoma cell lines by modulation of the CLOCK genes. Thus, in certain aspects miRNA regulates the expression of CLOCK genes and subsequently alters the proliferation of cholangiocytes after BDL. Methods: miRNA expression in normal and BDL rat liver was evaluated using hybridization based microRNA microarray. Mouse cholangiocytes (NMCs) were used for the experiments in vitro. mRNA expression was quantitated by real-time PCR analysis and protein expression was detected by Western blot. Results: […] Bioinformatics and dual-luciferase reporter assays identified Clock and cryptochrome 1 (Cry1), a blue light-dependent regulator of the circadian feedback loop, as the direct targets of miR-141. […] Targeting of […] during cholestatic liver injuries provides an important therapeutic strategy in the regulation of cholangiocytes proliferation through the regulation of Clock and Cry 1 expression."}, "large cholangiocytes": {"test_system": "large cholangiocytes", "assay": "PCNA expression and PKA, ERK1/2 phosphorylation (immunoblots) in purified large cholangiocytes from treated BDL rats", "type": "in vivo, rat", "description": "Cholangiocyte proliferation was evaluated by immunoblots (Francis et al., 2008) by determination of PCNA protein expression (measured as ratio to b-actin protein expression) (Francis et al., 2008), and the phosphorylation of cAMP-dependent PKA and ERK1/2 (expressed as ratio to protein expression of the corresponding total proteins) in protein ([…]) from whole cell lysate from spleen (positive control) and large cholangiocytes from BDL rats treated with vehicle or melatonin. The intensity of the bands was determined by scanning video densitometry using the phospho-imager Storm 860 and the ImageQuant TL software version 2003.02 (GE Healthcare)."}, "CLOCK gene": {"test_system": "CLOCK gene", "assay": "CLOCK expression by qPCR in CCA lines after melatonin", "type": "cell-based, human", "conditions": "melatonin 10-11 M for 48 hours", "description": "Methods: Melatonin immunoreactivity, the expression of melatonin biosynthesis enzymes and receptors were assessed by immunohistochemistry in tissue arrays from normal and CCA patients, and by qPCR and immunoblots in intra-hepatic and extra-hepatic CCA cell lines, and a normal cholangiocyte line (H69). Proliferation was evaluated in vitro by MTS assay in CCA lines and H69 after treatment with melatonin (10-7 to 10-11 M, 24-72 hours). In parallel, the expression of CLOCK after melatonin treatment (10-11 M for 48 hours) was assessed in CCA lines and normal cholangiocytes by qPCR."}, "[4]": {"test_system": "large mouse cholangiocyte lines", "assay": "cAMP levels (RIA) in large mouse cholangiocyte lines", "type": "cell-based", "conditions": "melatonin 10^−11 M for 5 minutes", "source_text": "The expression of MT1 and MT2 receptors in immortalized large cholangiocytes was first evaluated by immunofluorescence (Francis et al., 2008). Images were visualized using an Olympus IX-71 confocal microscope. For all immunoreactions, negative controls (with normal serum from the same species substituted for the primary antibody) were included. It was next evaluated by commercially available radioimmunoassay (RIA) kits ([…] et al., 1998; Kato et al., 1992; […] et al., 1999; […] et al., 2004) for cAMP levels ([…] et al., 1998; Kato et al., 1992; […] Shiu et al., 2010). […] […] et al., 1992; Ramirez-Rodriguez et al., 2009; […], 1999). […] Shiu et al., 2010) before evaluating by immunoblots (Francis et al., 2008) the expression of PCNA and the phosphorylation of PKA and EKR1/2."}}, "data": [{"smiles": "COc1ccc2[nH]cc(CCNC(C)=O)c2c1", "note": "[melatonin]", "values": [{"measurement": "concentration at 1 week", "setting": "[1]; BDL rats", "value": "0.165 ± 0.0668", "unit": "ng/mL"}, {"measurement": "concentration at 1 week", "setting": "[1]; normal rats", "value": "0.14 ± 0.0127", "unit": "ng/mL"}, {"measurement": "Morphological damage of kidney, heart, stomach, spleen and small and large intestine", "setting": "[2]", "value": "No morphological damage"}, {"measurement": "Expression of MT1 and MT2 (FACS)", "setting": "[3]", "value": "decreased"}, {"measurement": "Expression of PER1, BMAL1, CRY1 and CLOCK (FACS)", "setting": "[3]", "value": "decreased"}, {"measurement": "miR-141 expression in BDL rat liver", "setting": "miR-141", "value": "recovered"}, {"measurement": "PCNA expression in large cholangiocytes", "setting": "large cholangiocytes; melatonin-treated BDL rats vs. BDL control rats", "value": "decreased"}, {"measurement": "Phosphorylation of cAMP-dependent PKA and ERK2 (but not ERK1) in large cholangiocytes", "setting": "large cholangiocytes; melatonin-treated BDL rats vs. BDL controls", "value": "decreased"}, {"measurement": "Increase in levels of the CLOCK gene in CCA cells", "setting": "CLOCK gene", "value": "~50", "unit": "%"}, {"measurement": "cAMP levels", "setting": "[4]", "value": "decreased"}]}]}
